Reference: paper PMC12040169 (PLOS Biology, 2025)

Assay: in vitro
Conditions: human, hela cells, % viability

| Structure (SMILES) | viability at 28.5 h, 10 µM [%] |
| --- | --- |
| Cc1nn(-c2ccc(F)cc2)c2[nH]c(=O)c(CNC(C)C)cc12 [CBK283119] | 95.7 |
| Cc1nn(-c2ccc(F)cc2)c2[nH]c(=O)c(CNC(C)(C)C)cc12 [CBK283120] | 102 |
| Cc1nn(-c2ccc(F)cc2)c2[nH]c(=O)c(CNC3CC3)cc12 [CBK283121] | 98.1 |
| CCC(=O)N1c2ccc(C(O)CN3CCSCC3)cc2CC1C (stereo not shown) [CBK283122] | 91.5 |
| COc1ccccc1CN(CCCn1ccnc1)Cc1ccoc1 [CBK283123] | 97.2 |
| Cc1ccc(CN[C@@H]2CCC(=O)N[C@H]2c2cc(F)cc(F)c2)o1 [CBK283128] | 97.9 |
| O=C1CC[C@@H](NCc2cccs2)[C@H](c2cc(F)cc(F)c2)N1 [CBK283129] | 95.5 |
| O=C1CC[C@@H](NCc2cccnc2)[C@H](c2cc(F)cc(F)c2)N1 [CBK283130] | 90.9 |
| O=C1CC[C@@H](NCc2ccncc2)[C@H](c2cc(F)cc(F)c2)N1 [CBK283131] | 92.9 |
| Cc1nn(C(C)CC(=O)NC2CCCOC2)c(C)c1C (stereo not shown) [CBK283133] | 112 |
| Cc1ccc(CN(CCCn2ccnc2)Cc2ccccc2O)s1 [CBK283135] | 103 |
| Cc1ccc(CN(CCCn2ccnc2)Cc2nccn2C)s1 [CBK283137] | 91.8 |
| Cc1ccc(CN(CCCn2ccnc2)Cc2[nH]cnc2C)s1 [CBK283138] | 90.3 |
| O=C(Nc1cccc(N2CCCC2)c1)c1cc(C2CC2)on1 [CBK283139] | 87.7 |
| Cc1n[nH]c(C)c1CNC(=O)c1cc2ccc(F)cc2[nH]1 [CBK283147] | 89.4 |
| OC1(c2cccnc2F)CCN(Cc2c(F)cccc2Cl)CC1 [CBK283148] | 106 |
| OC1(c2cccnc2F)CCN(Cc2c(F)cccc2F)CC1 [CBK283149] | 107 |
| CCNC(=O)c1ccc(-n2cccn2)c(C#Cc2cccnc2)c1 [CBK283150] | 105 |
| Cc1cc2ccccc2n1CCC(=O)NC1CCCOC1 (stereo not shown) [CBK283152] | 91.1 |

| Structure (SMILES) | viability at 28.5 h, 10 µM [%] |
| --- | --- |
| CC1CCc2n[nH]c(C(=O)NCCCc3ccco3)c2C1 (stereo not shown) [CBK283153] | 88.6 |
| O=C(NCCCC1CCOC1)c1[nH]nc2c1CCCCC2 (stereo not shown) [CBK283154] | 88.7 |
| O=C(NCCCc1ccccn1)C1(c2ccccc2F)CC1 [CBK283155] | 93.6 |
| Cc1n[nH]c(C)c1CNC(=O)C1(c2ccccc2F)CC1 [CBK283156] | 96.4 |
| O=C(NCCN1CCc2ccccc21)C1CC2C=CC1O2 (stereo not shown) [CBK283158] | 96.2 |
| Cc1cc(C)n(CC(O)CN(Cc2ccco2)CC2CC=CCC2)n1 (stereo not shown) [CBK283159] | 95.6 |
| CCCc1cc(C(=O)N(C)CCOc2ccccc2)[nH]n1 [CBK283162] | 91.7 |
| O=C(NCCN1CCC(O)(c2ccc(F)cc2)CC1)c1cccs1 [CBK283163] | 91.5 |
| O=C(NCCN1CCC(O)(c2ccc(F)cc2)CC1)C1CC1 [CBK283164] | 97.1 |
| O=C(NCCN1CCC(O)(c2ccc(F)cc2)CC1)c1ccco1 [CBK283166] | 99.3 |
| CC1CC1C(=O)NCCN1CCC(O)(c2ccc(F)cc2)CC1 (stereo not shown) [CBK283168] | 96.7 |
| CCN1CCCC1CN(Cc1ccncc1)Cc1ccoc1 (stereo not shown) [CBK283171] | 91 |
| Cc1[nH]c2ccc(F)cc2c1-c1cn2c3c(nnc2n1)CCCC3 [CBK283172] | 92.3 |
| Cc1ccc(CN(CCCN(C)C)Cc2cccc(O)c2)o1 [CBK283173] | 108 |
| Cc1ccc(CN(Cc2c[nH]cn2)C2CC(C)(C)NC(C)(C)C2)o1 [CBK283175] | 91 |
| Cn1ccnc1CN(Cc1ccccc1)C1CC(C)(C)NC(C)(C)C1 [CBK283177] | 93.2 |
| Cc1nc[nH]c1CN(Cc1ccccc1)C1CC(C)(C)NC(C)(C)C1 [CBK283178] | 92 |
| CC1(C)CC(N(Cc2ccccc2)Cc2ncc[nH]2)CC(C)(C)N1 [CBK283179] | 95.2 |
